The values below come from ChEMBL document CHEMBL3352011, “Identification of novel 4-anilinoquinazoline derivatives as potent EGFR inhibitors both under normoxia and hypoxia” (Bioorg Med Chem, 2014).

By IC50 is commonly meant the concentration that gives 50% inhibition. The low end stands for inhibition by little substance, the high end for a need for much substance.

For data set [1], the system named is A549. In words: cells. Particulars: Homo sapiens, A549, 72 h. It is filed as functional, cell-based.
Description: Antiproliferative activity against human A549 cells assessed as inhibition of cell proliferation under normoxia conditions after 72 hrs by SRB assay
Data set [2] deals with HT-29. Description: cells. Particulars: Homo sapiens, HT-29, 72 h. It is filed as functional, cell-based.
Description: Antiproliferative activity against human HT-29 cells assessed as inhibition of cell proliferation under normoxia conditions after 72 hrs by SRB assay
Data set [3] deals with A549. Description: cells. The format is functional, cell-based. Particulars: Homo sapiens, A549, 72 h. This is another data set of the same source.
Description: Antiproliferative activity against human A549 cells assessed as inhibition of cell proliferation under hypoxia conditions after 72 hrs by SRB assay
In data set [4] the target is Epidermal growth factor receptor (Homo sapiens, UniProt P00533).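 Note: Wild-type EGFR enzyme inhibition, measured with a Z'-Lyte kinase assay.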
Sequence of Epidermal growth factor receptor (P00533 whole entry): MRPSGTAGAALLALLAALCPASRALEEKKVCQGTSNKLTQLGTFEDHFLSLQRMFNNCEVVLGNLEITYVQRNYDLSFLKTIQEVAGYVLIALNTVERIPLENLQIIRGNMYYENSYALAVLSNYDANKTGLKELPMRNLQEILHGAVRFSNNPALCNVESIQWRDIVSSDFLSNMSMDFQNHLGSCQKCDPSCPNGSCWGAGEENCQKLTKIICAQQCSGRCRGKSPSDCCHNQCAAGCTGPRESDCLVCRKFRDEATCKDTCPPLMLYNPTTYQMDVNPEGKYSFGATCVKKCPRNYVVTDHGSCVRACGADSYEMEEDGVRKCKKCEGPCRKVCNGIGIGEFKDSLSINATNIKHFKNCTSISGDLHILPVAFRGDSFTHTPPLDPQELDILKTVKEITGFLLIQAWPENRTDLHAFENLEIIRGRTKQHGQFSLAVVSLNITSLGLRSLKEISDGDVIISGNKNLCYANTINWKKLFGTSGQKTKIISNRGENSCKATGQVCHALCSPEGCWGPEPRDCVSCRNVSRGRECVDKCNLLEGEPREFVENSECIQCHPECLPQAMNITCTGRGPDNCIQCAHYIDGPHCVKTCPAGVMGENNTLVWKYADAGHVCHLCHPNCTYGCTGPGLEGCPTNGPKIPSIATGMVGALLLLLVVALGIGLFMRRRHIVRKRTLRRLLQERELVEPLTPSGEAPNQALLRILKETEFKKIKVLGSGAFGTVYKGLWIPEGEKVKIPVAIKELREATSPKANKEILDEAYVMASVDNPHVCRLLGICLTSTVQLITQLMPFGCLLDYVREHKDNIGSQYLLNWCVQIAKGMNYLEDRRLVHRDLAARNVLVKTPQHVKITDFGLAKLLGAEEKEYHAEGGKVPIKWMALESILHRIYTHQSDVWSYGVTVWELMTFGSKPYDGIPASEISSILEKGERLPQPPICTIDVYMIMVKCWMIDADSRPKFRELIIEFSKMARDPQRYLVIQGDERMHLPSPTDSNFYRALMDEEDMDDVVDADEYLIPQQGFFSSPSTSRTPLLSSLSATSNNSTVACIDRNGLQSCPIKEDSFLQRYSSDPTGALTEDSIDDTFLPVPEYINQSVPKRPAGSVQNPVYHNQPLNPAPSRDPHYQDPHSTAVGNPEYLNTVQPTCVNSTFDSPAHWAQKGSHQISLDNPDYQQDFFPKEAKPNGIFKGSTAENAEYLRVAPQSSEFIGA
Description: Inhibition of wild type EGFR (unknown origin) by Z'-Lyte kinase assay
The subject of data set [5] is HT-29. Description: cells. The format is functional, cell-based. The note with it: Homo sapiens, HT-29, 72 h. The source holds these as a separate data set.
Description: Antiproliferative activity against human HT-29 cells assessed as inhibition of cell proliferation under hypoxia conditions after 72 hrs by SRB assay
The nature of data set [6]: Drug metabolism in mouse liver microsomes at 5 uM in presence of NADPH incubated for 30 mins under hypoxia conditions by HPLC method. It is filed as ADME. Particulars: read-out: Drug metabolism. A general note: Liver microsomes are a subcellular fraction often used to study metabolism.
Data set [7] concerns A549. Description: Induction of apoptosis in human A549 cells at 10 uM under hypoxia conditions after 72 hrs by annexin VFITC/propidium iodide staining based flow cytometry (reference value: 4.7%). The format is functional.
Data set [8] deals with A549. In words: Induction of apoptosis in human A549 cells at 10 uM under normoxia conditions after 72 hrs by annexin VFITC/propidium iodide staining based flow cytometry (reference value: 3.94%). It is filed as functional. (In general: Flow cytometry measures light scatter and fluorescence of single cells or particles in a stream.)
Data set [9] is described as follows: Drug metabolism in mouse liver microsomes at 5 uM in presence of NADPH incubated for 30 mins under normoxia conditions by HPLC method. The format is ADME. The note with it: read-out: Drug metabolism.
Data set [10] is described as follows: Bioreductive drug activation in pH 7.4 PBS solution assessed as formation of imidazole radical at 4.2 umol incubated for 6 hrs in presence of cysteine and zinc dust by HPLC-Q-ToF-MS method.
Data set [11] is described as follows: Bioreductive drug activation in pH 7.4 PBS solution assessed as formation of hydroxylamino-imidazole at 4.2 umol incubated for 6 hrs in presence of cysteine and zinc dust by HPLC-Q-ToF-MS method.

Take `COc1cc2c(Nc3cccc(Br)c3)ncnc2cc1OCCOCCn1ccnc1[N+](=O)[O-]`: the IC50 in the data set with A549 [1] is 13 µM; with HT-29 [2], 10.8 µM; with A549 [3], 10.1 µM; in data set [4], 0.00082 µM; in the data set with HT-29 [5] it was 3.44 µM.

In the case of `COc1cc2c(Nc3cccc(Br)c3)ncnc2cc1OCCCCCn1ccnc1[N+](=O)[O-]`, the IC50 is 8.78 µM in the data set on A549 [1]; 5.05 µM in the data set with HT-29 [2]; 8.42 µM with A549 [3]; 0.00033 µM in data set [4]; 2.54 µM in the data set with HT-29 [5].

With `COc1cc2c(Nc3ccc(F)c(Cl)c3)ncnc2cc1OCCCCCCn1ccnc1[N+](=O)[O-]`, the IC50 in the data set with A549 [1] came to 13.4 µM; with HT-29 [2] it was 5.63 µM; in the data set on A549 [3] it was 6.52 µM; in data set [4], 0.00144 µM; in the data set on HT-29 [5], 1.84 µM.

As for `Nc1n[n+]([O-])c2ccccc2[n+]1[O-]` [TIRAPAZAMINE], the IC50 in the data set with A549 [1] was over 50 µM; in the data set on HT-29 [2], over 50 µM; with A549 [3], 6.9 µM.

As to `C#Cc1cccc(Nc2ncnc3cc(OCCCCn4ccnc4[N+](=O)[O-])c(OC)cc23)c1`, the IC50 in the data set on A549 [1] amounted to 2.21 µM; in the data set on HT-29 [2], 2.52 µM; in the data set on A549 [3], 1.08 µM; in data set [4], 0.00026 µM; in the data set with HT-29 [5] it was 0.59 µM.

Take `COc1cc2c(Nc3ccc(OCc4cccc(F)c4)c(Cl)c3)ncnc2cc1OCCCCCn1ccnc1[N+](=O)[O-]`: the IC50 in the data set on A549 [1] was found to be 19.9 µM; with HT-29 [2], 14.1 µM; with A549 [3] it was 14.4 µM; in [4] it was 0.0166 µM; with HT-29 [5] it was 5.04 µM.

On to `C#Cc1cccc(Nc2ncnc3cc(OCCCCCn4ccnc4[N+](=O)[O-])c(OC)cc23)c1`, for which the IC50 is 0.77 µM in the data set on A549 [1]; 1.31 µM with HT-29 [2]; 0.18 µM with A549 [3]; 0.00047 µM in data set [4]; 0.28 µM in the data set with HT-29 [5]. The metabolised at 0.5 h, 5 µM was over 80% in data set [6] and under 10% in [9]. Moreover, the Activity with A549 [7] stood at 26.15%; with A549 [8], 12.46%. Besides, the Drug metabolism result in [10] and in data set [11] was “Metabolite detected” throughout.

Turning to `C#Cc1cccc(Nc2ncnc3cc(OCCCn4ccnc4[N+](=O)[O-])c(OC)cc23)c1`, the IC50 is 2.31 µM in the data set with A549 [1], 3.17 µM in the data set with HT-29 [2] and 1.17 µM in the data set with A549 [3].

In the case of `COc1cc2c(Nc3ccc(F)c(Cl)c3)ncnc2cc1OCCCn1ccnc1[N+](=O)[O-]`, the IC50 in the data set on A549 [1] turned out to be 5.91 µM; in the data set on HT-29 [2], 6.14 µM; with A549 [3], 4.31 µM; in data set [4] it was 0.00077 µM; in the data set on HT-29 [5], 2.06 µM.

For `COc1cc2c(Nc3ccc(OCc4cccc(F)c4)c(Cl)c3)ncnc2cc1OCCCn1ccnc1[N+](=O)[O-]`, the IC50 with A549 [1] is 3.97 µM; in the data set with HT-29 [2], 3.79 µM; with A549 [3], 1.52 µM; in data set [4], 0.0305 µM; in the data set with HT-29 [5], 0.94 µM.

For `COc1cc2c(Nc3cccc(Br)c3)ncnc2cc1OCCCn1ccnc1[N+](=O)[O-]`, the IC50 is 13.5 µM with A549 [1]; 10.9 µM in the data set with HT-29 [2]; 7.83 µM with A549 [3]; 0.00049 µM in data set [4]; 2.82 µM with HT-29 [5].

For `COc1cc2c(Nc3ccc(OCc4cccc(F)c4)c(Cl)c3)ncnc2cc1OCCOCCn1ccnc1[N+](=O)[O-]`, the IC50 was 5.06 µM in the data set on A549 [1]; 7.64 µM in the data set on HT-29 [2]; 6.23 µM in the data set on A549 [3]; 0.0201 µM in data set [4]; 2.59 µM with HT-29 [5].

For `COc1cc2c(Nc3ccc(F)c(Cl)c3)ncnc2cc1OCCCCn1ccnc1[N+](=O)[O-]`, the IC50 in the data set with A549 [1] was found to be 2.67 µM; in the data set on HT-29 [2], 1.54 µM; with A549 [3], 1.41 µM; in data set [4] it was 0.00031 µM; in the data set on HT-29 [5], 0.67 µM.

Consider `COc1cc2c(Nc3cccc(Br)c3)ncnc2cc1OCCCCCCn1ccnc1[N+](=O)[O-]`, for which the IC50 with A549 [1] stood at 30.2 µM; with HT-29 [2] it was 10.5 µM; in the data set on A549 [3] it was 20.2 µM; in data set [4], 0.00078 µM; in the data set on HT-29 [5] it was 4.3 µM.

As to `COc1cc2c(Nc3ccc(OCc4cccc(F)c4)c(Cl)c3)ncnc2cc1OCCCCn1ccnc1[N+](=O)[O-]`, the IC50 was 10.5 µM with A549 [1], 4.49 µM in the data set on HT-29 [2], 8.69 µM in the data set with A549 [3] and 2.27 µM in the data set with HT-29 [5].

As for `C#Cc1cccc(Nc2ncnc3cc(OCCCCCCn4ccnc4[N+](=O)[O-])c(OC)cc23)c1`, the IC50 came out at 10.3 µM in the data set on A549 [1]; 4.5 µM in the data set on HT-29 [2]; 2.7 µM in the data set on A549 [3]; 0.00057 µM in data set [4]; 1.37 µM with HT-29 [5].

As for `C#Cc1cccc(Nc2ncnc3cc(OCCOCCn4ccnc4[N+](=O)[O-])c(OC)cc23)c1`, the IC50 worked out at 9.77 µM in the data set on A549 [1]; 8.77 µM with HT-29 [2]; 6.43 µM in the data set on A549 [3]; 0.00054 µM in data set [4]; 6.04 µM with HT-29 [5].

Regarding `COc1cc2c(Nc3ccc(F)c(Cl)c3)ncnc2cc1OCCCCCn1ccnc1[N+](=O)[O-]`, the IC50 with A549 [1] was 4.26 µM; in the data set with HT-29 [2], 4.08 µM; in the data set on A549 [3] it was 1.74 µM; in the data set on HT-29 [5], 1.03 µM.

Turning to `COc1cc2c(Nc3ccc(OCc4cccc(F)c4)c(Cl)c3)ncnc2cc1OCCCCCCn1ccnc1[N+](=O)[O-]`, the IC50 in the data set with A549 [1] was over 50 µM; in the data set on HT-29 [2], over 50 µM; with A549 [3] it was over 50 µM; in [4] it was 0.0355 µM; in the data set on HT-29 [5], over 50 µM.

Regarding `COc1cc2c(Nc3cccc(Br)c3)ncnc2cc1OCCCCn1ccnc1[N+](=O)[O-]`, the IC50 in the data set on A549 [1] stood at 3.09 µM; in the data set on HT-29 [2], 4.02 µM; in the data set on A549 [3], 1.97 µM; in data set [4] it was 0.00037 µM; in the data set on HT-29 [5] it was 1.43 µM.

As for `COc1cc2c(Nc3ccc(F)c(Cl)c3)ncnc2cc1OCCOCCn1ccnc1[N+](=O)[O-]`, the 50% inhibitory concentration (IC50) in the data set on A549 [1] was 12.9 µM; in the data set on HT-29 [2] it was 9.86 µM; in the data set on A549 [3], 7.64 µM; in data set [4], 0.00032 µM; with HT-29 [5], 5.52 µM.
